Test results as given in PubChem BioAssay (NCI).
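96-well plates; 48 h exposure; 5 concentrations. Endpoints by linear interpolation between flanking doses. Not reached: highest tested concentration assigned. TGI: total growth inhibition.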

Columns and labels:
Assay in all cases: NCI tumour cell line growth inhibition, 48 h
HL-60(TB) leukemia = system: HL-60(TB) leukemia
CCRF-CEM leukemia = system: CCRF-CEM leukemia
NCI-H226 lung = system: NCI-H226 lung
HOP-62 NSCLC = system: HOP-62 NSCLC
M19-MEL melanoma = system: M19-MEL melanoma
LXFL 529 NSCLC = system: LXFL 529 NSCLC
RPMI-8226 leukemia = system: RPMI-8226 leukemia
786-0 renal = system: 786-0 renal
HT29 colon = system: HT29 colon
HCC-2998 colon = system: HCC-2998 colon
CAKI-1 renal = system: CAKI-1 renal
DLD-1 colon = system: DLD-1 colon
SF-539 CNS = system: SF-539 CNS
NCI-H522 lung = system: NCI-H522 lung
HCT-116 colon = system: HCT-116 colon
SW-620 colon = system: SW-620 colon
SNB-19 CNS = system: SNB-19 CNS
OVCAR-4 ovarian = system: OVCAR-4 ovarian
SK-MEL-28 melanoma = system: SK-MEL-28 melanoma
SN12C renal = system: SN12C renal
SF-295 CNS = system: SF-295 CNS
XF 498 CNS = system: XF 498 CNS
UACC-62 melanoma = system: UACC-62 melanoma
K-562 leukemia = system: K-562 leukemia
MALME-3M melanoma = system: MALME-3M melanoma
RXF-631 renal = system: RXF-631 renal
UO-31 renal = system: UO-31 renal
KM12 colon = system: KM12 colon
EKVX NSCLC = system: EKVX NSCLC
SR leukemia = system: SR leukemia
A498 renal = system: A498 renal
SK-MEL-2 melanoma = system: SK-MEL-2 melanoma
OVCAR-3 ovarian = system: OVCAR-3 ovarian
DMS 273 small cell lung = system: DMS 273 small cell lung
SNB-75 CNS = system: SNB-75 CNS
TK-10 renal = system: TK-10 renal
A549 NSCLC = system: A549 NSCLC
OVCAR-8 ovarian = system: OVCAR-8 ovarian
SF-268 CNS = system: SF-268 CNS
M14 melanoma = system: M14 melanoma
DMS 114 small cell lung = system: DMS 114 small cell lung
MOLT-4 leukemia = system: MOLT-4 leukemia
UACC-257 melanoma = system: UACC-257 melanoma
IGROV1 ovarian = system: IGROV1 ovarian
NCI-H23 lung = system: NCI-H23 lung
SK-OV-3 ovarian = system: SK-OV-3 ovarian
COLO 205 colon = system: COLO 205 colon
HOP-92 NSCLC = system: HOP-92 NSCLC
SK-MEL-5 melanoma = system: SK-MEL-5 melanoma
ACHN renal = system: ACHN renal
LOX IMVI melanoma = system: LOX IMVI melanoma
KM20L2 colon = system: KM20L2 colon
HCT-15 colon = system: HCT-15 colon
U251 CNS = system: U251 CNS
NCI-H460 lung = system: NCI-H460 lung
SNB-78 CNS = system: SNB-78 CNS
RXF 393 renal = system: RXF 393 renal
OVCAR-5 ovarian = system: OVCAR-5 ovarian

COc1ccc([C@@H]2C[C@@H]3C(=O)OC(=O)[C@@H]3c3c2c2ccccc2n3C)cc1
TGI (HL-60(TB) leukemia): > 100 µM | TGI (CCRF-CEM leukemia): > 100 µM | TGI (NCI-H226 lung): > 100 µM | TGI (HOP-62 NSCLC): > 100 µM | TGI (M19-MEL melanoma): > 100 µM | TGI (LXFL 529 NSCLC): > 100 µM | TGI (RPMI-8226 leukemia): > 100 µM | TGI (786-0 renal): > 100 µM | TGI (HT29 colon): > 100 µM | TGI (HCC-2998 colon): > 100 µM | TGI (CAKI-1 renal): > 100 µM | TGI (DLD-1 colon): > 100 µM | TGI (SF-539 CNS): > 100 µM | TGI (NCI-H522 lung): > 100 µM | TGI (HCT-116 colon): > 100 µM | TGI (SW-620 colon): > 100 µM | TGI (SNB-19 CNS): > 100 µM | TGI (OVCAR-4 ovarian): > 100 µM | TGI (SK-MEL-28 melanoma): > 100 µM | TGI (SN12C renal): > 100 µM | TGI (SF-295 CNS): > 100 µM | TGI (XF 498 CNS): > 100 µM | TGI (UACC-62 melanoma): > 100 µM | TGI (K-562 leukemia): > 100 µM | TGI (MALME-3M melanoma): > 100 µM | TGI (RXF-631 renal): > 100 µM | TGI (UO-31 renal): > 100 µM | TGI (KM12 colon): > 100 µM | TGI (EKVX NSCLC): > 100 µM | TGI (SR leukemia): > 100 µM | TGI (A498 renal): > 100 µM | TGI (SK-MEL-2 melanoma): > 100 µM | TGI (OVCAR-3 ovarian): > 100 µM | TGI (DMS 273 small cell lung): > 100 µM | TGI (SNB-75 CNS): > 100 µM | TGI (TK-10 renal): > 100 µM | TGI (A549 NSCLC): > 100 µM | TGI (OVCAR-8 ovarian): > 100 µM | TGI (SF-268 CNS): > 100 µM | TGI (M14 melanoma): > 100 µM | TGI (DMS 114 small cell lung): > 100 µM | TGI (MOLT-4 leukemia): > 100 µM | TGI (UACC-257 melanoma): > 100 µM | TGI (IGROV1 ovarian): > 100 µM | TGI (NCI-H23 lung): > 100 µM | TGI (SK-OV-3 ovarian): > 100 µM | TGI (COLO 205 colon): > 100 µM | TGI (HOP-92 NSCLC): > 100 µM

O=C1c2ccccc2C(=O)N1C/C=N/NS(=O)(=O)c1ccc(F)cc1
TGI (HL-60(TB) leukemia): > 100 µM | TGI (CCRF-CEM leukemia): > 100 µM | TGI (NCI-H226 lung): > 100 µM | TGI (M19-MEL melanoma): > 100 µM | TGI (LXFL 529 NSCLC): > 100 µM | TGI (RPMI-8226 leukemia): > 100 µM | TGI (786-0 renal): > 100 µM | TGI (HCC-2998 colon): > 100 µM | TGI (CAKI-1 renal): > 100 µM | TGI (DLD-1 colon): > 100 µM | TGI (SF-539 CNS): > 100 µM | TGI (NCI-H522 lung): > 100 µM | TGI (HCT-116 colon): > 100 µM | TGI (SW-620 colon): > 100 µM | TGI (SNB-19 CNS): > 100 µM | TGI (SK-MEL-5 melanoma): > 100 µM | TGI (OVCAR-4 ovarian): > 100 µM | TGI (SN12C renal): > 100 µM | TGI (SF-295 CNS): > 100 µM | TGI (XF 498 CNS): > 100 µM | TGI (UACC-62 melanoma): > 100 µM | TGI (K-562 leukemia): > 100 µM | TGI (MALME-3M melanoma): > 100 µM | TGI (RXF-631 renal): > 100 µM | TGI (UO-31 renal): > 100 µM | TGI (KM12 colon): > 100 µM | TGI (EKVX NSCLC): > 100 µM | TGI (SR leukemia): > 100 µM | TGI (SK-MEL-2 melanoma): > 100 µM | TGI (DMS 273 small cell lung): > 100 µM | TGI (SNB-75 CNS): > 100 µM | TGI (TK-10 renal): > 100 µM | TGI (A549 NSCLC): > 100 µM | TGI (OVCAR-8 ovarian): > 100 µM | TGI (SF-268 CNS): > 100 µM | TGI (ACHN renal): > 100 µM | TGI (DMS 114 small cell lung): > 100 µM | TGI (LOX IMVI melanoma): > 100 µM | TGI (MOLT-4 leukemia): > 100 µM | TGI (UACC-257 melanoma): > 100 µM | TGI (KM20L2 colon): > 100 µM | TGI (IGROV1 ovarian): > 100 µM | TGI (NCI-H23 lung): > 100 µM | TGI (COLO 205 colon): > 100 µM | TGI (HCT-15 colon): > 100 µM | TGI (U251 CNS): > 100 µM

Cn1c2c([N+](=O)[O-])cccc2c(=O)c2c(O)cc3c(c21)C=CC(C)(C)O3
TGI (HL-60(TB) leukemia): > 100 µM | TGI (CCRF-CEM leukemia): > 100 µM | TGI (LXFL 529 NSCLC): > 100 µM | TGI (RPMI-8226 leukemia): > 100 µM | TGI (786-0 renal): > 100 µM | TGI (HT29 colon): > 100 µM | TGI (HCC-2998 colon): > 100 µM | TGI (CAKI-1 renal): > 100 µM | TGI (DLD-1 colon): > 100 µM | TGI (SF-539 CNS): 76.2 µM | TGI (NCI-H522 lung): 27.8 µM | TGI (NCI-H460 lung): > 100 µM | TGI (SW-620 colon): > 100 µM | TGI (SNB-19 CNS): > 100 µM | TGI (SK-MEL-5 melanoma): > 100 µM | TGI (SNB-78 CNS): > 100 µM | TGI (OVCAR-4 ovarian): 81 µM | TGI (SK-MEL-28 melanoma): > 100 µM | TGI (SN12C renal): > 100 µM | TGI (SF-295 CNS): 99.5 µM | TGI (XF 498 CNS): 45.2 µM | TGI (UACC-62 melanoma): > 100 µM | TGI (K-562 leukemia): > 100 µM | TGI (MALME-3M melanoma): > 100 µM | TGI (RXF 393 renal): 62.1 µM | TGI (RXF-631 renal): > 100 µM | TGI (UO-31 renal): > 100 µM | TGI (KM12 colon): > 100 µM | TGI (EKVX NSCLC): > 100 µM | TGI (A498 renal): > 100 µM | TGI (SK-MEL-2 melanoma): > 100 µM | TGI (DMS 273 small cell lung): > 100 µM | TGI (SNB-75 CNS): 84.5 µM | TGI (TK-10 renal): > 100 µM | TGI (A549 NSCLC): > 100 µM | TGI (OVCAR-8 ovarian): > 100 µM | TGI (SF-268 CNS): > 100 µM | TGI (ACHN renal): > 100 µM | TGI (M14 melanoma): > 100 µM | TGI (DMS 114 small cell lung): > 100 µM | TGI (LOX IMVI melanoma): > 100 µM | TGI (MOLT-4 leukemia): > 100 µM | TGI (UACC-257 melanoma): > 100 µM | TGI (KM20L2 colon): > 100 µM | TGI (IGROV1 ovarian): > 100 µM | TGI (NCI-H23 lung): > 100 µM | TGI (SK-OV-3 ovarian): > 100 µM | TGI (COLO 205 colon): > 100 µM | TGI (OVCAR-5 ovarian): > 100 µM | TGI (HCT-15 colon): > 100 µM | TGI (U251 CNS): > 100 µM
